Results as given in patent publication US20180104174A1, “Cosmetic Use of a Diospyros Mespiliformis Extract Alone or in Combination with Other Active Agents Such as an Anti-Pollutant” (Laboratoires Clarins, priority 2015, published 2018).

Tests used:
Assay type in all cases: cell-based
[1] = system: cell reactive oxygen species (ROSs) in normal human keratinocytes; experiment: Mitoread AntiOx cROS: cell ROS production after H2O2 stress
From the text: The objective of this study is the characterization of the antioxidant property of a Sanicula europea extract by evaluating the parameters of the redox state after induction of an oxidative stress by hydrogen peroxide (H2O2) in primary cultures of normal human keratinocytes. The Mitosafe® technology makes it possible to explore the antioxidant effects of active agents at the mitochondrial level. This technology consists of the integrated study of mitochondrial functions in living cells by multiplexed measurement of parameters such as cell viability, production of cell and mitochondrial oxygen free radicals, evaluation of antioxidant defenses. These tests in 96-well plates are carried out on primary cultures of human epidermal cells. The Mitoread AntiOx cROS methodology consists of the quantification of the antioxidant activity of the ingredients toward cell reactive oxygen species (ROSs) using a fluorescent label. […] After washing, the cells were co-incubated with the antioxidant reference compound, […] Trolox, or the extracts, at concentrations determined to be non-cytotoxic, in the presence of the pro-oxidizing reference compound, 100 μM H2O2. The cell ROS production was immediately recorded for 60 minutes. The fluorescence is recorded every five minutes using a microplate reader (Varioskan-Thermo). […]

[2] = system: mitochondrial reactive oxygen species (ROSs) in normal human keratinocytes; experiment: Mitoread AntiOx mtROS: mitochondrial ROS production after H2O2 stress
From the text: The objective of this study is the characterization of the antioxidant property of a Sanicula europea extract by evaluating the parameters of the redox state after induction of an oxidative stress by hydrogen peroxide (H2O2) in primary cultures of normal human keratinocytes. The Mitosafe® technology makes it possible to explore the antioxidant effects of active agents at the mitochondrial level. This technology consists of the integrated study of mitochondrial functions in living cells by multiplexed measurement of parameters such as cell viability, production of cell and mitochondrial oxygen free radicals, evaluation of antioxidant defenses. These tests in 96-well plates are carried out on primary cultures of human epidermal cells. The Mitoread AntiOx mtROS methodology consists of the quantification of the antioxidant activity of the ingredients toward mitochondrial reactive oxygen species (ROSs) using a fluorescent label. The cells were pre-incubated at 37° C. for 60 minutes with the reference antioxidant, resveratrol 1 μM, or the active ingredients at the predetermined concentrations. Next, they were incubated with the fluorescent probe at 37° C. for 30 minutes, as a replacement for the antioxidant compounds. […] The mitochrondrial ROS production was immediately recorded for 60 minutes. The fluorescence is recorded every five minutes using a microplate reader (Varioskan-Thermo). […]

[3] = system: mitochondrial superoxide dismutase (SOD) in normal human keratinocytes; experiment: Mitoread RedOx c/mtSOD: mitochondrial SOD activity after H2O2 stress
From the text: (§1) The objective of this study is the characterization of the antioxidant property of a Sanicula europea extract by evaluating the parameters of the redox state after induction of an oxidative stress by hydrogen peroxide (H2O2) in primary cultures of normal human keratinocytes. The Mitosafe® technology makes it possible to explore the antioxidant effects of active agents at the mitochondrial level. This technology consists of the integrated study of mitochondrial functions in living cells by multiplexed measurement of parameters such as cell viability, production of cell and mitochondrial oxygen free radicals, evaluation of antioxidant defenses. These tests in 96-well plates are carried out on primary cultures of human epidermal cells. The Mitoread RedOx c/mtSOD methodology consists of the quantification of the cell and mitochondrial SOD activities. The cells were pre-incubated at 37° C. for 60 minutes with the reference antioxidant, resveratrol at 1 μM, or the active ingredients at the predetermined concentrations. The cells were treated with the reference pro-oxidizing compound, hydrogen peroxide H2O2 at 100 μM for 60 minutes. Immediately after, the cell extracts were prepared and stored at −80° C. The enzymatic activities were measured by means of a fluorometric and enzymatic method using a microplate reader (Varioskan-Thermo). All the extracts were tested in triplicate.

[4] = system: total glutathione (GSH+GSSG) in normal human keratinocytes; experiment: Mitoread RedOx GSHtot: total glutathione level after H2O2 stress
From the text: as §1, with “RedOx GSHtot” for “RedOx c/mtSOD”, “the total glutathione level (GSH+GSSG).” for “the cell and mitochondrial SOD activities.”, “resveratrol” for “resveratrol at”, “the extract” for “the active ingredients”, “100 μM,” for “100 μM”, “The total glutathione level was” for “The enzymatic activities were”

[5] = system: cell superoxide dismutase (SOD) in normal human keratinocytes; experiment: Mitoread RedOx c/mtSOD: cell SOD activity after H2O2 stress
From the text: as §1

## Cc1c(C)c2c(c(C)c1O)CCC(C)(C(=O)O)O2 (stereo not shown) [Trolox]
[1]; Trolox at 10 μm, p<0.001
  reduction of the overproduction of cell ROSs induced by H2O2: 1.7 times

## OO [H2O2, hydrogen peroxide]
[2]; 100 μM H2O2
  increase in mitochondrial production of ROSs relative to the nontreated cells (factor): 9.4
[3]; H2O2 100 μM, p=0.006
  increase in the mitochondrial SOD activity compared with the nontreated cells: ~211%
[1]; 100 μM H2O2
  increase of the cell ROS production level compared with the nontreated cells: 7.4 times
[4]; H2O2 at 100 μM, p=0.044
  increase in the total glutathione level compared with the nontreated cells: ~2.9 times
[5]; H2O2 100 μM, non-significant trend, p=0.075
  decrease in the cell SOD activity compared with the nontreated cells: ~30%

## Oc1ccc(C=Cc2cc(O)cc(O)c2)cc1 [resveratrol]
[2]; 1 μM, p=0.013
  reduction of the overproduction of mitochondrial ROSs induced by H2O2: ~1.3 times
[3]; 1 μM, p=0.021
  reduction of the activity of the mitochondrial SOD induced by H2O2: ~66%
[4]; pre-incubation at 1 μM, p=0.006
  reduction of the total glutathione level after treatment with H2O2: 94%
[5]; 1 μM, p=0.036
  increase in the cell SOD activity in response to H2O2 exposure: ~40%
